Test results taken from ChEMBL document CHEMBL5390284, “Shikimate-Derived Meroterpenoids from the Ascidian-Derived Fungus Amphichorda felina SYSU-MS7908 and Their Anti-Glioma Activity” (J Nat Prod, 2023).
Active and inactive are the calls of the source. The calls are words filed in the database; no cut-off is given here.

Experiments:
[1] = test system: T98G; experiment: Antiproliferative activity against human T98G cells assessed as inhibition of cell growth at 100 uM incubated for 48 hrs by MTT assay; assay type: functional, cell-based
[2] = test system: U-87 MG; experiment: Antiproliferative activity against human U-87 MG cells assessed as inhibition of cell growth at 100 uM incubated for 48 hrs by MTT assay; assay type: functional
[3] = test system: U-251; experiment: Antiproliferative activity against human U-251 cells assessed as inhibition of cell growth at 100 uM incubated for 48 hrs by MTT assay; assay type: functional

CC(=O)O[C@@H]1C[C@]23O[C@H]2[C@]2(O)CC(C)=CC(=O)C2=C[C@@H]3OC1(C)C
Activity [1]: inactive | Activity ([2]; U-87MG ATCC): inactive | Activity [3]: inactive

CO[C@@H]1C2=C(OC(C)(C)CC2=O)[C@@H]2O[C@@]23C[C@@H](OC(C)=O)C(C)(C)O[C@@H]13
Activity [1]: inactive | Activity ([2]; U-87MG ATCC): inactive | Activity [3]: inactive

CC(=O)O[C@@H]1Cc2c(cc3c(c2O)OC(C)(C)CC3=O)OC1(C)C
Activity [1]: inactive | Activity ([2]; U-87MG ATCC): inactive | Activity [3]: inactive

CC(=O)O[C@@H]1C[C@]23O[C@H]2C2=C(C(=O)CC(C)(C)O2)[C@@H](O)[C@@H]3OC1(C)C
Activity [1]: inactive | Activity ([2]; U-87MG ATCC): inactive | Activity [3]: inactive

C=C(C)C#C[C@]12O[C@H]1[C@@H]1OC(C)(C)[C@H](OC(C)=O)C[C@@]13O[C@H]3[C@@H]2OC(C)=O
Activity [2]: >50% | Activity [3]: >50%
